Marks after values point to notes of the source that are not given here.
Experiments:
Format in all cases: physicochemical
Conditions in all cases: mean ± DE of three replicate experiments
[1] = NO removal assay
Experimental: (§1) We confirmed the removal activity of the polyphenol rich extract from microfiltered blackberry juice using different methods (Chart 11), and this activity was compared with the flavonoid remover of quercetin radicals.
Four hours of pretreatment with the blackberry extract reduced NO production in a dose dependent manner only when the LPS+IFNγ was incubated with the extract (no wash). If the extract is removed before the addition of LPS+IFNγ (with rinsing), inhibition of NO production was seen only in the highest concentration tested.

[2] = DPPH radical removal
Text: as §1

[3] = Antioxidant capacity (ORAC)
Text: as §1

No Removal IC50 [1]: 6.57 ± 0.8^b μg/mL
DPPH IC50 [2]: 2.17 ± 0.08^b μg/mL
SMILES: O=c1c(O)c(-c2ccc(O)c(O)c2)oc2cc(O)cc(O)c12 [Quercetin]
ORAC [3]: 2067 ± 81^b μM TE/g

— patent US10278949B2, “Method for obtaining an extract rich in ellagic acid tannins from fruits that contain these compounds, and resulting extract” (UNIVERSIDAD DE COSTA RICA, priority 2011, dated 2019)
